Assays:
Format in all cases: cell-based
[1] = test system: NFkB-p65; assay: Western blot of cytoplasmic and nuclear NFkB-p65 (nucleotranslocation) in BV2 cells; settings: 22.0 μg/ml curcuminoid, LPS induction, FIGS. 4 and 5
Protocol: (§1) Western blot analysis was performed in multiple varying formats before optimization was achieved. The BV2 microglia cell line was cultured in Dulbecco's Modified Eagle's Medium (DMEM)—complete medium. The complete medium consisted of DMEM, 1% Ampicillin, and 10% Fetal Bovine Serum (FBS). BV2 microglia cells, at a cell count of approximately 2×10^6, were seeded in each well (6 wells per plate) with 2.0 ml complete medium and cultured overnight in a ThermaForma HepaFilter Series II Co2 Incubator at 37° Celsius. Upon establishing confluence, subconfluent cells were washed out and the wells were prepared with drug pre-treatment after overnight incubation.
(§2) The test drugs (curcuminoids) were procured as follows: curcumin I research standard (03926) (ChromaDex Irvine, Calif. USA) (97.7% purity); curcumin II research standard (04230) (ChromaDex Irvine, Calif. USA) (97.3%); curcumin III research standard (B6938) (Sigma-Aldrich St. Louis, Mo., USA) (97.7% purity); curcumin extract (curcumin I—77.7%, curcumin II—16.9%, curcumin III—0.9%) research standard (03928) (ChromaDex Irvine, Calif. USA) (95.3% purity); and Lipopolysaccharide (LPS) from E. Coli (L2630) (Sigma-Aldrich St. Louis, Mo., USA).
(§3) Curcuminoids are not soluble in aqueous medium due to their hydrophobic characteristic. However, curcuminoid extracts are soluble in polar organic solvents, such as DMSO and acetone. In this Example, each curcuminoid preparation was first dissolved in DMSO. DMSO was used in the drug preparation at 0.2%. The drug/DMSO solution was subsequently dissolved in DMEM to achieve a final drug concentration for each curcuminoid preparation tested—22.0 μg/ml curcuminoid. […]
(§4) Total protein concentration for each fraction was determined using a Bio Rad Protein Assay that is based on the Bradford Assay (dye-binding method). […]
(§5) The targets analyzed in the Western Blot included NFkB-p65 and its nucleocytoplasmic translocation, as well as kinases (including MSK1) and their covalent modifications upstream of and involved in the regulation of NFkB. […]

[2] = test system: NFkB-p65 serine 276 phosphorylation; assay: Western blot of NFkB-p65 phosphorylated at serine 276 in BV2 cells; settings: 22.0 μg/ml curcuminoid, LPS induction, FIGS. 6 and 7
Protocol: as §1, §2, §3, §4, §5

[3] = test system: MSK1 serine 376 phosphorylation; assay: Western blot of MSK1 phosphorylated at serine 376 in BV2 cells; settings: 22.0 μg/ml curcuminoid, LPS induction, FIGS. 10 and 11
Protocol: as §1, with “incubation. […]” for “incubation.”
as §4, §5

[4] = test system: miRNA148a; assay: RT qPCR of miRNA148a levels in BV2 cells; settings: 22 μg/ml curcuminoid, 30 min pre-treatment, with or without LPS, FIG. 3
Protocol: Reverse transcriptase (RT) quantitative PCR (RT qPCR) was performed to measure miRNA 148a levels in cells that were treated with curcumin I, II, or III, or a control. More particularly, six-well plates were seeded with BV2 cells at a concentration of about 1.5×10^6 BV2 cells per well. Drug (curcumin I, II, or III) treatment was carried out in the same manner as was executed for the western blot experimentation described in Example 3 below. Ten wells were prepared and, upon confluence, the next day the drug treatment was designed to evaluate basal influence of curcumin extract, curcumin I, curcumin II, curcumin III, as well as each curcumin drug with LPS stimulation. After 30 minutes of incubation with the drug treatment, LPS was used to induce the cells in each well labelled to be induced by LPS.
RNA was ultimately extracted from the cells to determine the levels of miRNA148a. A Qiagen miRNeasy Mini Kit (Cat. No. 217004) was used to extract total RNA along with miRNA. The miRNA was reverse transcribed to cDNA using a gene-specific RT primer and the miScript II RT Kit by Qiagen (Cat. No. 218161). An miRNA148a primer assay was acquired from Qiagen (Cat. No. 00003556). […]

[5] = test system: MSK1; assay: Western blot of cytoplasmic and nuclear MSK1 protein levels in BV2 cells; settings: 22.0 μg/ml curcuminoid, LPS induction
Protocol: as §1, with “incubation. […]” for “incubation.”
as §4, §5

Row | Structure (SMILES) | inhibition of NFkB-p65 nucleotranslocation (cytosolic and nuclear NFkB-p65) [1] | inhibition of NFkB-p65 serine 276 phosphorylation [2] | inhibition of MSK1 serine 376 phosphorylation [3] | effect on miRNA148a levels [4] | effect on MSK1 protein levels in the cytoplasm ([5]; FIG. 8) | effect on MSK1 protein levels in the nucleus ([5]; FIG. 9)
1 | COc1cc(/C=C/C(=O)/C=C(O)/C=C/c2ccc(O)c(OC)c2)ccc1O [curcumin I, (1E,6E)-1,7-Bis(4-hydroxy-3-methoxyphenyl)-1,6-heptadiene-3,5-dione] | not significantly inhibited | moderately inhibit |  |  |  | 
2 | COc1cc(/C=C/C(=O)CC(=O)/C=C/c2ccc(O)cc2)ccc1O [curcumin II, (1E,6E)-1-(4-Hydroxy-3-methoxyphenyl)-7-(4-hydroxyphenyl)hepta-1,6-diene-3,5-dione] | not significantly inhibited | moderately inhibit | inhibit | inhibits |  | 
3 | O=C(/C=C/c1ccc(O)cc1)CC(=O)/C=C/c1ccc(O)cc1 [curcumin III, (1E,6E)-1,7-bis(4-hydroxyphenyl)hepta-1,6-diene-3,5-dione] | not significantly inhibited | moderately inhibit | inhibition | significantly increase | significantly inhibited and downregulated | significantly inhibited and downregulated

Reference: patent publication US20180353443A1, “CURCUMIN-BASED COMPOSITIONS & METHODS OF USE THEREOF” (priority 2015, published 2018)
